The results in this text go back to patent US10654834B2 (Venenum Biodesign, LLC, priority 2016, dated 2020).

A value given as a limit tells only on which side of the number the result lay.

One assay has as its target T1, human TGR5 receptor (Homo sapiens, UniProt Q8TDU6).
T1 construct: host or cells: CHO-K1 (hTGR5-CHO)
T1 sequence (Q8TDU6 1-330): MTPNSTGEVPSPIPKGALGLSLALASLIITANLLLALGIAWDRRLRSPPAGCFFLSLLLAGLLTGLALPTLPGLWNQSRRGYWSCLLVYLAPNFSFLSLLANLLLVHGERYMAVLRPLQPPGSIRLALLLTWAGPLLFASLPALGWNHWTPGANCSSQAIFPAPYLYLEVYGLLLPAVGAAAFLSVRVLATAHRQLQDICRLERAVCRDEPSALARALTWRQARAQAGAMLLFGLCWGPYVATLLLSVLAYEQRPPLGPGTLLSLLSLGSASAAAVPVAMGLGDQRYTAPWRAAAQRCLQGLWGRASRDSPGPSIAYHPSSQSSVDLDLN
In words: Human TGR5 cAMP production assay (hTGR5-CHO cells, DiscoveRx cAMP XS+ kit). It is filed as cell-based. The following applies: luminescent cAMP assay, read-out: Human TGR5 Lum. cAMP Activity (EC50). In outline:
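CHO-K1 cells stably expressing hTGR5, in PBS with IBMX and cAMP antibody, treated with half-log compound dilutions for 1 h at room temperature. cAMP measured by enzyme-fragment complementation luminescence after overnight detection; EC50 values reported.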
A general note: Changes in cAMP serve as a functional read-out for many G protein-coupled receptors.

A further assay concerns Mouse STC-1 cells. In words: STC-1 GLP-1 assay (GLP-1 secretion). The following applies: Mouse STC-1 cells, GLP-1 secretion, 2 h; read-out: Mouse STC-1 HTRF GLP-1 Activity (EC50). It is filed as cell-based. The essentials:
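Mouse STC-1 cells were plated two days ahead in DMEM with 10% charcoal-dextran stripped FBS, then exposed to compound in HBSS with protease inhibitors, DPP-IV inhibitor and 0.1% fatty acid free BSA for 2 h at 37° C. Active GLP-1 in supernatant was quantified by HTRF; EC50 derived from 12-point half-log curves.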
Background: In TR-FRET formats the signal depends on donor and acceptor labels being close together.

The term EC50 denotes the midpoint of the concentration-response curve. In the case of `N#Cc1ccc(CCNC(=O)[C@@H]2CCCN2c2cc(N3CCC(CCCC(=O)N[C@@H](CCCNC(=N)N)C(=O)N[C@@H](CCCNC(=N)N)C(=O)O)CC3)cc(C(F)(F)F)n2)cc1` [Compound 202, (S)-2-((S)-2-(4-(1-(2-((S)-2-((4-cyanophenethyl)carbamoyl)pyrrolidin-1-yl)-6-(trifluoromethyl)pyridin-4-yl)piperidin-4-yl)butanamido)-5-guanidinopentanamido)-5-guanidinopentanoic acid], the EC50 at human TGR5 receptor and in the assay on Mouse STC-1 cells was less than 100 nM each time.
For `N#Cc1ccc(CCNC(=O)[C@@H]2CCCN2c2cc(N3CCC(CCCC(=O)NCCCC[C@H](NC(=N)N)C(=O)O)CC3)nc(C(F)(F)F)n2)cc1` [Compound 129, (S)-6-(4-(1-(6-((S)-2-((4-cyanophenethyl)carbamoyl)pyrrolidin-1-yl)-2-(trifluoromethyl)pyrimidin-4-yl)piperidin-4-yl)butanamido)-2-guanidinohexanoic acid], the EC50 on human TGR5 receptor is less than 100 nM; in the assay with Mouse STC-1 cells, 100 to 999 nM.
Taken in the same sequence, the figures for `N#Cc1ccc(CCNC(=O)[C@@H]2CCCN2c2cc(N3CCC(CCNC(=O)NCP(=O)(O)O)CC3)nc(C(F)(F)F)n2)cc1` [Compound 372, (S)-((3-(2-(1-(6-(2-((4-cyanophenethyl)carbamoyl)pyrrolidin-1-yl)-2-(trifluoromethyl)pyrimidin-4-yl)piperidin-4-yl)ethyl)ureido)methyl)phosphonic acid] were less than 100 nM and less than 100 nM.
The like results for `N=C(N)N[C@@H](CCC(=O)NCCCC1CCN(c2cc(N3CCC[C@H]3C(=O)NCCc3ccc(C(F)(F)F)cc3)nc(C(F)(F)F)n2)CC1)C(=O)O` [Compound 133, (S)-2-guanidino-5-oxo-5-((3-(1-(2-(trifluoromethyl)-6-((S)-2-((4-(trifluoromethyl)phenethyl)carbamoyl)pyrrolidin-1-yl)pyrimidin-4-yl)piperidin-4-yl)propyl)amino)pentanoic acid] were, in that order, less than 100 nM and less than 100 nM.
In the case of `COc1cc(C(F)(F)F)ccc1CCNC(=O)[C@@H]1CCN1c1cc(N2CCC(CCC(=O)NCCS(=O)(=O)O)CC2)nc(C(F)(F)F)n1` [Compound 259], the EC50 on human TGR5 receptor was less than 100 nM; in the assay on Mouse STC-1 cells, 100 to 999 nM.
The like results for `N#Cc1ccc(CCNC(=O)[C@@H]2CCCN2c2cc(N3CCC(CCCC(=O)NCCNc4ncc(C(=O)NCCS(=O)(=O)O)cn4)CC3)nc(C(F)(F)F)n2)cc1` [Compound 112, (S)-2-(2-((2-(4-(1-(6-(2-((4-cyanophenethyl)carbamoyl)pyrrolidin-1-yl)-2-(trifluoromethyl)pyrimidin-4-yl)piperidin-4-yl)butanamido)ethyl)amino)-pyrimidine-5-carboxamido)ethanesulfonic acid] were, in that order, less than 100 nM and less than 100 nM.
`N#Cc1ccc(CCNC(=O)[C@@H]2CCN2c2cc(N3CCC(CCNC(=O)NCCNC(=N)N)CC3)nc(C(F)(F)F)n2)cc1` [Compound 286, (S)-N-(4-cyanophenethyl)-1-(6-(4-(2-(3-(2-guanidinoethyl)-ureido)ethyl)piperidin-1-yl)-2-(trifluoromethyl)pyrimidin-4-yl)azetidine-2-carboxamide]: the EC50 at human TGR5 receptor is less than 100 nM; in the assay on Mouse STC-1 cells, 100 to 999 nM.
For `N#Cc1ccc(CCNC(=O)[C@@H]2CCN2c2cc(N3CCC(CCO)CC3)nc(C(F)(F)F)n2)cc1` [Compound 223, (S)-N-(4-cyanophenethyl)-1-(6-(4-(2-hydroxyethyl)piperidin-1-yl)-2-(trifluoromethyl)pyrimidin-4-yl)azetidine-2-carboxamide], the EC50 at human TGR5 receptor and with Mouse STC-1 cells was less than 100 nM throughout.
Regarding `N#Cc1ccc(CCNC(=O)[C@@H]2CCCN2c2cc(N3CCC(CCNC(=N)N)CC3)nc(C(F)(F)F)n2)cc1` [Compound 126, (S)—N-(4-cyanophenethyl)-1-(6-(4-(2-guanidinoethyl)piperidin-1-yl)-2-(trifluoromethyl)pyrimidin-4-yl)pyrrolidine-2-carboxamide], the EC50 was less than 100 nM on human TGR5 receptor and 100 to 999 nM in the assay with Mouse STC-1 cells.
Taken in the same sequence, the figures for `N#CCCN1CCN(c2cc(N3CCC[C@H]3C(=O)NCCc3ccc(C#N)cc3)nc(C(F)(F)F)n2)CC1` [Compound 32] were less than 100 nM and 100 to 999 nM.
As to `N#Cc1ccc(CCNC(=O)[C@@H]2CCCN2c2cc(N3CCC(CCO)CC3)nc(C(F)(F)F)n2)cc1` [Compound 22], the EC50 at human TGR5 receptor and in the assay on Mouse STC-1 cells was less than 100 nM throughout.
On to `N#Cc1ccc(CCNC(=O)[C@@H]2CCN2c2cc(N3CCC(CCCC(=O)NC[C@@H](O)[C@H](O)[C@@H](O)[C@@H](O)CO)CC3)nc(C(F)(F)F)n2)cc1` [Compound 260, (S)—N-(4-cyanophenethyl)-1-(6-(4-(4-oxo-4-(((2R,3S,4S,5S)-2,3,4,5,6-pentahydroxyhexyl)amino)butyl)piperidin-1-yl)-2-(trifluoromethyl)pyrimidin-4-yl)azetidine-2-carboxamide], for which the EC50 was less than 100 nM at human TGR5 receptor and 100 to 999 nM with Mouse STC-1 cells.
As for `N#Cc1ccc(CCNC(=O)[C@@H]2CCN2c2cc(N3CCC(CCNC(=O)NCCS(N)(=O)=O)CC3)nc(C(F)(F)F)n2)cc1` [Compound 269, (S)—N-(4-cyanophenethyl)-1-(6-(4-(2-(3-(2-sulfamoylethyl)ureido)ethyl)piperidin-1-yl)-2-(trifluoromethyl)pyrimidin-4-yl)azetidine-2-carboxamide], the EC50 on human TGR5 receptor and in the assay with Mouse STC-1 cells was less than 100 nM in each case.
On to `N#Cc1ccc(CCNC(=O)[C@@H]2CCCN2c2cc(N3CCC(CCCC(=O)NCCC(=O)NC(CO)(CO)CO)CC3)nc(C(F)(F)F)n2)cc1` [Compound 109, (S)—N-(4-cyanophenethyl)-1-(6-(4-(4-((3-((1,3-dihydroxy-2-(hydroxymethyl)propan-2-yl)amino)-3-oxopropyl)amino)-4-oxobutyl)piperidin-1-yl)-2-(trifluoromethyl)-pyrimidin-4-yl)pyrrolidine-2-carboxamide], for which the EC50 was less than 100 nM at human TGR5 receptor and 100 to 999 nM in the assay with Mouse STC-1 cells.
Taken in the same sequence, the figures for `COc1cc(C(F)(F)F)ccc1CCNC(=O)[C@@H]1CCCN1c1cc(N2CCC(CCCC(=O)O)CC2)nc(C(F)(F)F)n1` [Compound 34] were less than 100 nM and less than 100 nM.
Regarding `O=C(O)CCCC1CCN(c2cc(N3CCC[C@@H](C(=O)NCCc4ccc(C(F)(F)F)cc4)C3)nc(C(F)(F)F)n2)CC1` [Compound 330, (R)-4-(1-(2-(trifluoromethyl)-6-(3-((4-(trifluoromethyl)phenethyl)carbamoyl)piperidin-1-yl)pyrimidin-4-yl)piperidin-4-yl)butanoic acid], the EC50 at human TGR5 receptor was less than 100 nM; in the assay with Mouse STC-1 cells, 100 to 999 nM.
Regarding `N#Cc1ccc(CCNC(=O)[C@@H]2CCCN2c2cc(-c3ccc(CO)cc3)cc(C(F)(F)F)n2)cc1` [Compound 204, (S)—N-(4-cyanophenethyl)-1-(4-(4-(hydroxymethyl)phenyl)-6-(trifluoromethyl)pyridin-2-yl)pyrrolidine-2-carboxamide], the EC50 on human TGR5 receptor is less than 100 nM; with Mouse STC-1 cells, 100 to 999 nM.
On to `N#Cc1ccc(CCNC(=O)[C@@H]2CCCN2c2cc(N3CCC(CCC(=O)O)CC3)nc(C(F)(F)F)n2)cc1` [Compound 28], for which the EC50 on human TGR5 receptor and in the assay on Mouse STC-1 cells was 100 to 999 nM in each case.
Take `N#Cc1ccc(CCNC(=O)[C@@H]2CCN2c2cc(N3CCC(CO)CC3)nc(C(F)(F)F)n2)cc1` [Compound 219, (S)—N-(4-cyanophenethyl)-1-(6-(4-(hydroxymethyl)piperidin-1-yl)-2-(trifluoromethyl)pyrimidin-4-yl)azetidine-2-carboxamide]: the EC50 at human TGR5 receptor and with Mouse STC-1 cells was less than 100 nM throughout.
For `N#Cc1ccc(CCNC(=O)[C@@H]2CCN2c2cc(N3CCC(CCNC(=O)NCCOCCNC(=N)N)CC3)nc(C(F)(F)F)n2)cc1` [Compound 287, (S)-1-(6-(4-(1-amino-1-imino-9-oxo-5-oxa-2,8,10-triazadodecan-12-yl)piperidin-1-yl)-2-(trifluoromethyl)pyrimidin-4-yl)-N-(4-cyanophenethyl)azetidine-2-carboxamid], the EC50 at human TGR5 receptor and with Mouse STC-1 cells was less than 100 nM throughout.
